“And” between values parts separate entries of the source, which are not always exact repeats. Identical values can stand only once. Like-named read-outs stand apart in the source and are kept apart here.
Columns and labels:
[1] = system: Capan-1 cells (K-Ras G12V); experiment: CellTiter-Glo cell viability, Capan-1; type: cell-based, human; conditions: K-Ras G12V, 5-day treatment, read-out: Capan-1 Cell Viability IC50
How it was run: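 Five-day treatment of K-Ras mutant cells with directly dispensed compound; ATP-based luminescence endpoint. Percent of DMSO signal fit to four-parameter logistic curve.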

[2] = system: K-Ras G12C (NCI-H358 cells); experiment: Potency assay: pERK in NCI-H358 cells; type: cell-based, human; conditions: Homo sapiens; NCI-H358 cells, 4 hours; read-out: pERK EC50 (H358 KRAS G12C)
How it was run: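 Cells plated the day before were exposed for 4 h at 37° C, 5% CO2 to a 10-point, 3-fold DMSO dilution series (10 mM top stock), in duplicate. Phospho-ERK was read by AlphaLISA SureFire Ultra or by In-Cell Western with DRAQ5 DNA stain, and IC50 came from a 4-parameter sigmoidal fit.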

[3] = system: NCI-H358 cells (K-Ras G12C); experiment: CellTiter-Glo cell viability, NCI-H358; type: cell-based, human; conditions: read-out: H358 Cell Viability IC50
Description: Note—The following protocol describes a procedure for monitoring cell viability of K-Ras mutant cancer cell lines in response to a compound of the invention. Other RAS isoforms may be employed, though the number of cells to be seeded will vary based on cell line used.
Test compounds (132.5 nl) were directly dispensed into the assay plates containing cells. […] On day 5, assay plates and their contents were equilibrated to room temperature for approximately 30 minutes. […] Luminescence was measured using the PerkinElmer Enspire. Data were normalized by the following: (Sample signal/Avg. DMSO)*100. The data were fit using a four-parameter logistic fit.

NCI-H358 (K-Ras G12C) = experiment: CellTiter-Glo cell viability assay, NCI-H358; type: cell-based, human; conditions: Homo sapiens, NCI-H358, 120 h, 5-day treatment; read-out: H358 Cell Viability assay data (K-Ras G12C, IC50)
How it was run: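 Five-day compound treatment of NCI-H358 cells, then CellTiter-Glo luminescence, percent of DMSO, four-parameter logistic fit.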

KRAS G13D = KRAS G13D (Homo sapiens (Human), UniProt P01116+P62937, G13D); experiment: Ras-Raf disruption/FRET/MOA assay (BRAF RBD, Cyclophilin A); type: biochemical; conditions: read-out: KRAS G13D FRET data IC50
How it was run: (§1)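 TR-FRET read after 1.5 h with 10 nM anti-His Eu-W1024 and 50 nM anti-GST APC, following 3 h at 25 °C of GMPPNP-loaded His6-Ras (12.5 nM), GST-BRAF RBD (50 nM) and Cyclophilin A (25 μM) with compound from 30 μM final, 10 points, 3-fold. IC50 reported; pH 7.3 HEPES, 100 mM NaCl.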

KRAS G13C = KRAS G13C (Homo sapiens (Human), UniProt P01116+P62937, G13C); experiment: as above; type: biochemical; conditions: read-out: KRAS G13C FRET IC50
How it was run: as §1

NRAS G12C = NRAS G12C (Homo sapiens (Human), UniProt P01111+P62937, G12C); experiment: as above; type: biochemical; conditions: read-out: NRAS G12C FRET data IC50
How it was run: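 First, 25 μM Cyclophilin A, 12.5 nM His6-Ras-GMPPNP and 50 nM GST-BRAF RBD are mixed with diluted compound at pH 7.3. Next, 3 h at 25° C. Then 10 nM anti-His Eu-W1024 plus 50 nM anti-GST allophycocyanin for 1.5 h before TR-FRET reading.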

KRAS G12C = KRAS G12C (Homo sapiens (Human), UniProt P01116+P62937, G12C); experiment: as above; type: biochemical; conditions: read-out: KRAS G12C FRET IC50
How it was run: as §1

KRAS WT = KRAS WT (Homo sapiens (Human), UniProt P01116+P62937); experiment: as above; type: biochemical; conditions: read-out: KRAS WT FRET data IC50
How it was run: as §1

KRAS G12V = KRAS G12V (Homo sapiens (Human), UniProt P01116+P62937, G12V); experiment: as above; type: biochemical; conditions: read-out: KRAS G12V FRET IC50
How it was run: as §1

KRAS G12S = KRAS G12S (Homo sapiens (Human), UniProt P01116+P62937, G12S); experiment: as above; type: biochemical; conditions: read-out: KRAS G12S FRET IC50
How it was run: as §1

KRAS G12D = KRAS G12D (Homo sapiens (Human), UniProt P01116+P62937, G12D); experiment: as above; type: biochemical; conditions: read-out: KRAS G12D FRET IC50
How it was run: as §1

[4] = Homo sapiens, NCI-H358, 120 h, K-Ras G12C, 5-day treatment

Sequence of KRAS WT (P01116 other isoform, or with tags, fused parts or gaps): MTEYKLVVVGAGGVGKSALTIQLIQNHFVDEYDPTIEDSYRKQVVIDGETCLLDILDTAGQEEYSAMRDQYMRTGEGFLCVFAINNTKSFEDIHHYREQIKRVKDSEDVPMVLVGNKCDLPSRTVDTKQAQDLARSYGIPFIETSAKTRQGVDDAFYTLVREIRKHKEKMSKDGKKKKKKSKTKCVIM
Sequence of KRAS WT (P62937 whole entry): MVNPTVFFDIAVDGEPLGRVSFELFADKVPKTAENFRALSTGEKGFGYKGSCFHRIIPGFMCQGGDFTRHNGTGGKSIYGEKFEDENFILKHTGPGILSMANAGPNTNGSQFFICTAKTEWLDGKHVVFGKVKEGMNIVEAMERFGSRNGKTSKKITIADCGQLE
Sequence of KRAS G12S (P01116 other isoform, or with tags, fused parts or gaps G12S): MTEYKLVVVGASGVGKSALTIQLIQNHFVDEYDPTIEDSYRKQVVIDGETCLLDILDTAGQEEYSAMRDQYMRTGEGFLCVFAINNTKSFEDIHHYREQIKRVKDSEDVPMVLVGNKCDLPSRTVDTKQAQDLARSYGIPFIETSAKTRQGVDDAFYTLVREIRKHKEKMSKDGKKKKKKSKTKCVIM
Sequence of KRAS G12S (P62937 whole entry): as the sequence (P62937 whole entry) above
Sequence of KRAS G12V (P01116 other isoform, or with tags, fused parts or gaps G12V): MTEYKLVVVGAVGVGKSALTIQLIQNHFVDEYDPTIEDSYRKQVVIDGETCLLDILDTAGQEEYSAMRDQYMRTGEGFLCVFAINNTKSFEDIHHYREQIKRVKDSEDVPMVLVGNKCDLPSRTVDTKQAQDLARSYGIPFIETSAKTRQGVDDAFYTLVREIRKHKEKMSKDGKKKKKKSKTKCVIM
Sequence of KRAS G12V (P62937 whole entry): as the sequence (P62937 whole entry) above
Sequence of KRAS G12C (P01116-2 other isoform, or with tags, fused parts or gaps G12C): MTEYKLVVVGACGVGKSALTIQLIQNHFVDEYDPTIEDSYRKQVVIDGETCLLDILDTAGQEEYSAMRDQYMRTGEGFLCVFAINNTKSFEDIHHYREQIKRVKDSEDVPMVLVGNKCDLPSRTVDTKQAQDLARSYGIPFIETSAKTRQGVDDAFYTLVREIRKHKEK
Sequence of KRAS G12C (P62937 whole entry): as the sequence (P62937 whole entry) above
Sequence of KRAS G12D (P01116 other isoform, or with tags, fused parts or gaps G12D): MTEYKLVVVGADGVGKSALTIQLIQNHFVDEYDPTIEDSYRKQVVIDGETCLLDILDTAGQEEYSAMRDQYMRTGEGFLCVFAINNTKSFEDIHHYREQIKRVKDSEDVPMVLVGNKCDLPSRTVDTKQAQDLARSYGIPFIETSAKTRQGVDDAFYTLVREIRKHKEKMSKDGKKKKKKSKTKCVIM
Sequence of KRAS G12D (P62937 whole entry): as the sequence (P62937 whole entry) above
Sequence of KRAS G13C (P01116 other isoform, or with tags, fused parts or gaps G13C): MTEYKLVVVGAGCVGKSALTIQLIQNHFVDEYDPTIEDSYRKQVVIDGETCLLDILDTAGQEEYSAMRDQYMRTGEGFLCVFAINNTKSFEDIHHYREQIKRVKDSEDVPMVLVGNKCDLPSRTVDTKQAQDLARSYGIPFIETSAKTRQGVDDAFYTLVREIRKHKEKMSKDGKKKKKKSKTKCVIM
Sequence of KRAS G13C (P62937 whole entry): as the sequence (P62937 whole entry) above
Sequence of KRAS G13D (P01116 other isoform, or with tags, fused parts or gaps G13D): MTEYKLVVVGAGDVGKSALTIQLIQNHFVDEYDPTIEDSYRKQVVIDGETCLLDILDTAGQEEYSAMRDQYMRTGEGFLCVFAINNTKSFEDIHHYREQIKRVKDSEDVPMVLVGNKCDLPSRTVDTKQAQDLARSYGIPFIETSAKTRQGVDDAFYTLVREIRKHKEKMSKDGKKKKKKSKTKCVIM
Sequence of KRAS G13D (P62937 whole entry): as the sequence (P62937 whole entry) above
Sequence of NRAS G12C (P01111 whole entry G12C): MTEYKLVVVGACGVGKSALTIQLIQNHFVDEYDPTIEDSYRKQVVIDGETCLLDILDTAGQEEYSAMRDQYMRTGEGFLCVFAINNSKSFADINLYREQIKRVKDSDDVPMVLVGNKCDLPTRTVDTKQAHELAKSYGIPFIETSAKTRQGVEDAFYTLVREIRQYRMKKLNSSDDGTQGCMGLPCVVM
Sequence of NRAS G12C (P62937 whole entry): as the sequence (P62937 whole entry) above

| Compound | IC50 [1] | EC50 [2] | IC50 ([3]; K-Ras G12C, 5-day treatment) | IC50 (NCI-H358 (K-Ras G12C)) | IC50 (KRAS G13D) | IC50 (KRAS G13C) | IC50 (NRAS G12C) | IC50 (KRAS G12C) | IC50 (KRAS WT) | IC50 (KRAS G12V) | IC50 (KRAS G12S) | IC50 (KRAS G12D) | IC50 ([3]; Homo sapiens, NCI-H358, 120 h) | IC50 ([1]; Homo sapiens, CAPAN-1, 120 h) | IC50 [3, 4] |
| --- | --- | --- | --- | --- | --- | --- | --- | --- | --- | --- | --- | --- | --- | --- | --- |
| CCn1c(-c2cccnc2[C@H](C)OC)c2c3cc(ccc31)-c1cc(O)cc(c1)C[C@H](NC(=O)[C@H](C(C)C)N(C)C(=O)[C@H]1C[C@@H]1O)C(=O)N1CCC[C@H](N1)C(=O)OCC(C)(C)C2 (single isomer, unassigned) [Compound A346] | 0.1 to 1 µM | < 5 µM | 0.1 to 1 µM |  |  |  |  |  |  |  |  |  |  |  |  |
| CCn1c(-c2cnccc2COC)c2c3cc(ccc31)-c1cc(O)cc(c1)C[C@H](NC(=O)[C@H](C(C)C)N(C)C(=O)C1(C)COC1)C(=O)N1CCC[C@H](N1)C(=O)OCC(C)(C)C2 [Compound A49] |  |  |  | > 10 µM | 1 to 10 µM | 1 to 10 µM | 1 to 10 µM | 0.1 to 1 µM | 0.1 to 1 µM | 0.1 to 1 µM | 1 to 10 µM | 1 to 10 µM |  |  |  |
| CCn1c(-c2cnccc2COC)c2c3cc(ccc31)-c1cc(O)cc(c1)C[C@H](NC(=O)[C@H](C(C)C)N(C)C(=O)OC1CCOC1)C(=O)N1CCC[C@H](N1)C(=O)OCC(C)(C)C2 (stereo partly drawn) [Compound A50, oxolan-3-yl-N-[(1S)-1-{[(8S,14S)-22-ethyl-4-hydroxy-21-[4-(methoxymethyl)pyridin-3-yl]-18,18-dimethyl-9,15-dioxo-16-oxa-10,22,28-triazapentacyclo [18.5.2.1^2,6.1^10,14.0^23,27]nonacosa-1 (26),2,4,6 (29),20,23 (27),24-heptaen-8-yl]carbamoyl}-2-methylpropyl]-N-methylcarbamate] |  |  |  |  |  |  |  |  |  |  |  |  | 1 to 10 µM |  |  |
| CCn1c(-c2cnccc2COC)c2c3cc(ccc31)-c1cc(O)cc(c1)C[C@H](NC(=O)[C@H](C(C)C)N(C)C(=O)C1CNC1)C(=O)N1CCC[C@H](N1)C(=O)OCC(C)(C)C2 [Compound A87] |  | < 5 µM |  | 0.01 to 0.1 µM | 0.01 to 0.1 µM and 0.1 to 1 µM | 0.1 to 1 µM and 0.01 to 0.1 µM | 0.01 to 0.1 µM and 0.1 to 1 µM | 0.1 to 1 µM and 0.01 to 0.1 µM | 0.01 to 0.1 µM and 0.1 to 1 µM | 0.1 to 1 µM and 1 to 10 µM | 0.1 to 1 µM and 0.01 to 0.1 µM | 0.1 to 1 µM |  | > 10 µM |  |
| CCn1c(-c2cccnc2[C@H](C)OC)c2c3cc(ccc31)-c1csc(n1)C[C@H](NC(=O)[C@H](C(C)C)N(C)C(=O)O[C@H]1CCN(C)C1)C(=O)N1CCC[C@H](N1)C(=O)OCC(C)(C)C2 [Compound A173] |  |  |  |  |  |  |  |  |  |  |  |  |  |  | 0.1 to 1 µM |
| CCn1c(-c2cccnc2[C@H](C)OC)c2c3cc(ccc31)-c1cc(O)cc(c1)C[C@H](NC(=O)[C@H](C(C)C)N(C)C(=O)[C@H]1C[C@@H]1C)C(=O)N1CCC[C@H](N1)C(=O)OCC(C)(C)C2 [Compound A287] |  |  |  |  |  |  |  |  |  |  |  |  |  | 0.1 to 1 µM | 0.1 to 1 µM |
| CCn1c(-c2cccnc2[C@H](C)OC)c2c3cc(ccc31)-c1csc(n1)C[C@H](NC(=O)[C@H](C(C)C)N(C)C(=O)N1CCN3CCOCC3C1)C(=O)N1CCC[C@H](N1)C(=O)OCC(C)(C)C2 (some centres unmarked) [Compound A296] |  | < 5 µM |  |  | 1 to 10 µM | 0.1 to 1 µM | 0.1 to 1 µM | 0.1 to 1 µM | 0.1 to 1 µM | 0.1 to 1 µM | 0.1 to 1 µM | 1 to 10 µM |  | 0.01 to 0.1 µM |  |
| CCn1c(-c2cccnc2[C@H](C)OC)c2c3cc(ccc31)-c1cc(O)cc(c1)C[C@H](NC(=O)[C@H](C(C)C)N(C)C(=O)[C@@H]1CCN(C(=O)OC)C1)C(=O)N1CCC[C@H](N1)C(=O)OCC(C)(C)C2 [Compound A365] |  | < 5 µM |  |  | 0.01 to 0.1 µM | 0.01 to 0.1 µM | 0.01 to 0.1 µM | 0.01 to 0.1 µM | 0.01 to 0.1 µM | 0.01 to 0.1 µM | 0.01 to 0.1 µM | 0.01 to 0.1 µM |  | 0.01 to 0.1 µM |  |

Reference: patent US20250195521A1 (Revolution Medicines, Inc., priority 2020, published 2025)
